This is an account of results in ChEMBL document CHEMBL4342480, “Design of Dual Inhibitors of Soluble Epoxide Hydrolase and LTA4 Hydrolase” (ACS Med Chem Lett, 2020).

Test [1] addresses T1, Bifunctional epoxide hydrolase 2 (Homo sapiens, UniProt P34913).
T1 sequence (P34913 whole entry): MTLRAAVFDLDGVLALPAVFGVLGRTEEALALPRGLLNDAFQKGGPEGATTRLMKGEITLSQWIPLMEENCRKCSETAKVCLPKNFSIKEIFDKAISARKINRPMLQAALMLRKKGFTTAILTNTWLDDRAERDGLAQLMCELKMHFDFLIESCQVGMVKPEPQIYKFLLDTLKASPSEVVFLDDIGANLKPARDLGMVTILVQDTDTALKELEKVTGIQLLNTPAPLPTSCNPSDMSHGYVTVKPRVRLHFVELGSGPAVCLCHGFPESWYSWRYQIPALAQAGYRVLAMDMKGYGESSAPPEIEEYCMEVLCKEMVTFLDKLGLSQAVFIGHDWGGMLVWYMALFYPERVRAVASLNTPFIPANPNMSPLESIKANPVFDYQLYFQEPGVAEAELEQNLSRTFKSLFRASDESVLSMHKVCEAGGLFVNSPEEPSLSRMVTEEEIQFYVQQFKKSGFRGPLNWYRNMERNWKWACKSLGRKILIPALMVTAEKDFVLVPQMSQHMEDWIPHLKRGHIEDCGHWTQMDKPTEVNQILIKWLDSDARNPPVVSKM
The experiment in a line: Inhibition of full length human soluble epoxide hydrolase (1 to 555 residues) expressed in Escherichia coli BL21(DE3) using non-fluorescent PHOME as substrate preincubated for 30 mins followed by substrate addition and measured for 30 mins by fluorescence based assay.

The subject of test [2] is Macrophage. The experiment in a line: Antiinflammatory activity in Escherichia coli O6:K2:H1-induced human M1 macrophage assessed as change in 17-HDHA level at 1 uM preincubated for 10 mins followed by Escherichia coli O6:K2:H1-stimulation and measured after 180 mins by UPLC-MS/MS analysis relative to control. The format is functional.
Test [3] deals with Macrophage. The experiment in a line: Antiinflammatory activity in Escherichia coli O6:K2:H1-induced human M1 macrophage assessed as change in 15-HETE level at 1 uM preincubated for 10 mins followed by Escherichia coli O6:K2:H1-stimulation and measured after 180 mins by UPLC-MS/MS analysis relative to control. Format: functional.
Test [4] concerns Macrophage. Description: Antiinflammatory activity in Escherichia coli O6:K2:H1-induced human M1 macrophage assessed as change in PGD2 level at 1 uM preincubated for 10 mins followed by Escherichia coli O6:K2:H1-stimulation and measured after 180 mins by UPLC-MS/MS analysis relative to control. The format is functional.
For test [5], the system named is Macrophage. Description: Antiinflammatory activity in Escherichia coli O6:K2:H1-induced human M1 macrophage assessed as change in 15-HEPE level at 10 uM preincubated for 10 mins followed by Escherichia coli O6:K2:H1-stimulation and measured after 180 mins by UPLC-MS/MS analysis relative to control. The format is functional.
Test [6] relates to Macrophage. Description: Antiinflammatory activity in Escherichia coli O6:K2:H1-induced human M1 macrophage assessed as change in 7-HDHA level at 10 uM preincubated for 10 mins followed by Escherichia coli O6:K2:H1-stimulation and measured after 180 mins by UPLC-MS/MS analysis relative to control. Format: functional.
The test system of test [7] is Macrophage. The experiment in a line: Antiinflammatory activity in Escherichia coli O6:K2:H1-induced human M1 macrophage assessed as change in 18-HEPE level at 10 uM preincubated for 10 mins followed by Escherichia coli O6:K2:H1-stimulation and measured after 180 mins by UPLC-MS/MS analysis relative to control. The format is functional.
Test [8] deals with Macrophage. The experiment in a line: Antiinflammatory activity in Escherichia coli O6:K2:H1-induced human M1 macrophage assessed as change in 5.15-dlHETE level at 10 uM preincubated for 10 mins followed by Escherichia coli O6:K2:H1-stimulation and measured after 180 mins by UPLC-MS/MS analysis relative to control. Format: functional.
Test [9] deals with Macrophage. The experiment in a line: Antiinflammatory activity in Escherichia coli O6:K2:H1-induced human M1 macrophage assessed as change in […] level at 10 uM preincubated for 10 mins followed by Escherichia coli O6:K2:H1-stimulation and measured after 180 mins by UPLC-MS/MS analysis relative to control. The format is functional.
For test [10], the system named is Macrophage. Description: Antiinflammatory activity in Escherichia coli O6:K2:H1-induced human M2 macrophage assessed as change in 15-HETE level at 1 uM preincubated for 10 mins followed by Escherichia coli O6:K2:H1-stimulation and measured after 180 mins by UPLC-MS/MS analysis relative to control. Format: functional.
Test [11] has as its system Macrophage. The experiment in a line: Antiinflammatory activity in Escherichia coli O6:K2:H1-induced human M2 macrophage assessed as change in 12-HETE level at 1 uM preincubated for 10 mins followed by Escherichia coli O6:K2:H1-stimulation and measured after 180 mins by UPLC-MS/MS analysis relative to control. The format is functional.
The test system of test [12] is Macrophage. The experiment in a line: Antiinflammatory activity in Escherichia coli O6:K2:H1-induced human M2 macrophage assessed as change in 12-HEPE level at 1 uM preincubated for 10 mins followed by Escherichia coli O6:K2:H1-stimulation and measured after 180 mins by UPLC-MS/MS analysis relative to control. The format is functional.
Test [13] relates to Macrophage. Description: Antiinflammatory activity in Escherichia coli O6:K2:H1-induced human M2 macrophage assessed as change in 5-HEPE level at 1 uM preincubated for 10 mins followed by Escherichia coli O6:K2:H1-stimulation and measured after 180 mins by UPLC-MS/MS analysis relative to control. The format is functional.
Test [14] relates to Macrophage. Description: Antiinflammatory activity in Escherichia coli O6:K2:H1-induced human M2 macrophage assessed as change in 17-HDHA level at 10 uM preincubated for 10 mins followed by Escherichia coli O6:K2:H1-stimulation and measured after 180 mins by UPLC-MS/MS analysis relative to control. The format is functional.
The subject of test [15] is Macrophage. Description: Antiinflammatory activity in Escherichia coli O6:K2:H1-induced human M2 macrophage assessed as change in 15-HETE level at 10 uM preincubated for 10 mins followed by Escherichia coli O6:K2:H1-stimulation and measured after 180 mins by UPLC-MS/MS analysis relative to control. Format: functional.
The subject of test [16] is Macrophage. Description: Antiinflammatory activity in Escherichia coli O6:K2:H1-induced human M2 macrophage assessed as change in 12-HEPE level at 10 uM preincubated for 10 mins followed by Escherichia coli O6:K2:H1-stimulation and measured after 180 mins by UPLC-MS/MS analysis relative to control. Format: functional.
Test [17] has as its system Macrophage. Description: Antiinflammatory activity in Escherichia coli O6:K2:H1-induced human M2 macrophage assessed as change in 18-HEPE level at 10 uM preincubated for 10 mins followed by Escherichia coli O6:K2:H1-stimulation and measured after 180 mins by UPLC-MS/MS analysis relative to control. The format is functional.
The subject of test [18] is Macrophage. The experiment in a line: Antiinflammatory activity in Escherichia coli O6:K2:H1-induced human M2 macrophage assessed as change in 5.15-dlHETE level at 10 uM preincubated for 10 mins followed by Escherichia coli O6:K2:H1-stimulation and measured after 180 mins by UPLC-MS/MS analysis relative to control. Format: functional.
The test system of test [19] is Macrophage. The experiment in a line: Antiinflammatory activity in Escherichia coli O6:K2:H1-induced human M2 macrophage assessed as change in PGE2 level at 10 uM preincubated for 10 mins followed by Escherichia coli O6:K2:H1-stimulation and measured after 180 mins by UPLC-MS/MS analysis relative to control. The format is functional.
For test [20], the system named is Macrophage. Description: Antiinflammatory activity in Escherichia coli O6:K2:H1-induced human M2 macrophage assessed as change in total LTB4 level at 10 uM preincubated for 10 mins followed by Escherichia coli O6:K2:H1-stimulation and measured after 180 mins by UPLC-MS/MS analysis relative to control. The format is functional.

The term IC50 denotes the concentration needed to halve the response being measured. A lower IC50 goes with greater potency. Regarding `O=C(Cc1ccc(Oc2nc3ccccc3s2)cc1F)NCCc1ccc(F)cc1`, the half-inhibitory concentration (IC50) in [1] amounted to 300 nM. Moreover, the Activity amounted to 97% in the test with Macrophage [2]; 102% in the test on Macrophage [3]; 127% with Macrophage [4]; 191% in the test with Macrophage [5]; 66% in the test with Macrophage [6]; 73% with Macrophage [7]. The Activity in the test with Macrophage [8] came out at 97%; with Macrophage [9], 82%; in the test on Macrophage [10] it was 82%; in the test with Macrophage [11], 87%; with Macrophage [12], 78%; in the test with Macrophage [13], 93%. Besides, the Activity is 135% in the test with Macrophage [14]; 123% with Macrophage [15]; 105% in the test on Macrophage [16]; 96% in the test on Macrophage [17]; 101% in the test on Macrophage [18]; 51% in the test with Macrophage [19]. Also, the Activity in the test with Macrophage [20] is 72%.
